Reference: ChEMBL document CHEMBL1157539, “Thousands of chemical starting points for antimalarial lead identification” (Nature, 2010)

The compounds below were run on Plasmodium falciparum (assay: GSK_TCMDC: Inhibition of Plasmodium falciparum 3D7 in whole erythrocytes, using parasite LDH activity as an index of growth.). Conditions: not given.
Type: functional, organism-based

SMILES	XC50 [nM]
N#Cc1c(Cl)cccc1Oc1ccc(S(=O)(=O)NC2CCC(CN3CCC(c4c[nH]c5ccccc45)CC3)CC2)cc1 (stereo unspecified)	714

Same assay, conditions: Plasmodium falciparum, 3D7

SMILES	XC50 [nM]
CS(=O)(=O)CCNCc1ccc(-c2ccc3c(Nc4ccc(F)cc4Cl)ccnc3c2)o1	744
CCc1c[nH]c2c(N3CCCS3(=O)=O)cc(C(=O)N[C@@H](Cc3ccccc3)[C@H](O)CNC(C)(C)c3cccc(C(F)(F)F)c3)cc12	228
O=C(Nc1ccc(OC2CCN(Cc3ccccc3)CC2)c(Cl)c1)c1ccco1	408
Cc1ccc(Nc2nc(C)cc(NC3CCCC3)n2)cc1	292
NC(=O)c1ccccc1OCC(=O)Nc1ccc(-c2cccc(-c3nc4cc(C(F)(F)F)ccc4[nH]3)c2)cc1	978
CCc1nc2nc(C)cc(Nc3ccc4c(c3)OCCO4)n2n1	1290
COC(=O)c1c(NC(=O)c2cccc(C(F)(F)F)c2)sc2c1CCN(Cc1ccccc1)C2	1340
N#Cc1c(Cl)cccc1Oc1ccc(S(=O)(=O)NC2CCC(CN3CCC(c4c[nH]c5ccccc45)CC3)CC2)cc1 (stereo unspecified)	1070
COc1ccc(-c2nc3cccnc3n2CC(=O)Nc2cc(Cl)c(Cl)cc2Cl)c(OC)c1	722
Cc1cc(C(F)(F)F)n2nc(C(=O)N(Cc3cncn3Cc3cccc(F)c3)CC3CC3)cc2n1	742
CC1(C)C(N(O)C(=O)Nc2ccc(Cl)c(Cl)c2)N(c2ccc(Cl)c(Cl)c2)C(=O)N1CCc1ccccc1 (stereo unspecified)	823
CNC(=O)NC1=NC(C)(C)N(OCc2ccc(Cl)c(Cl)c2)C(NC(=O)NC)=N1	601
CCC[C@@H](/C=N/N(C)C(=O)OC(C)(C)C)NC(=O)[C@H](CC(C)C)NC(=O)c1cc2cccc(OC)c2o1	1080
O=C(NC1CCCCC1)N(Cc1cccc(-c2ccc(CNCc3ccc4c(c3)OCO4)cc2)c1)C1CCN(Cc2ccccc2)CC1	788
CCN(CC)CCCC(C)Nc1c(-c2ccc(OC)cc2)cnc2ccccc12 (stereo unspecified)	894
FC(F)(F)c1cccc(CCNc2nccc(NCc3ccc(Cl)cc3Cl)n2)c1	858
CCOC(=O)c1ccc(OCCOc2ccccc2)cc1	367
CCN(c1ccc(F)cc1)S(=O)(=O)c1cc(Br)cc2c1N(C(=O)C1CC1)CC2	943
CN(C)CCOc1ccc(-n2c(-c3nonc3N)nc3cncc(-c4ccc(F)cc4)c32)cc1	866
C=Cc1cc(NC(=O)N2CCc3cc(OC)c(C(F)(F)F)cc32)cc(-c2cccnc2)c1	702
CCOc1ccc2[nH]c(C)cc(=NN=Cc3cccc(F)c3)c2c1	736
COC(=O)Cc1ccc(N)c2ccccc12	702
CN1Cc2ccc(NS(=O)(=O)c3ccc(-c4ccoc4)cc3)cc2C1	160
Clc1ccc(Cc2nc3ccccc3[nH]2)cc1Cl	246

SMILES	XC50 [nM]
Cc1cc(CNCCCCCCNCc2ccc(Cl)cc2)ccc1O	823
Fc1ccc(CN2CCN(c3ncnc4cc(-c5ccccc5)sc34)CC2)cc1	1020
CC(=O)Nc1ccc(CN(Cc2ccc(C)cc2)Cc2cccc(Oc3ccccc3)c2)cc1	1050
O=C(N[C@H]1CCN(Cc2ccc(OC3CCN(Cc4ccccc4)CC3)c(Br)c2)C1)c1ccc(Cl)c(Cl)c1	783
O=C(/C=C/c1ccc(F)c(C(F)(F)F)c1)N1CCC(CN2CCC(c3c[nH]c4ccccc34)CC2)CC1	917
CCN(CCCN1CCCCC1)c1cc(C)nc(Nc2ccc(OC)cc2)n1	621
Cc1cccc2nc(-c3cccc(-c4cccc(C(=O)NCCN5CCCC5)c4)c3)[nH]c12	833
Cc1ccc2sc(N3CCN(C(=O)c4ccc([N+](=O)[O-])o4)CC3)nc2c1C	945
COc1cc2ccccc2c(OC)c1CNCCCCCCNCc1c(OC)cc2ccccc2c1OC	988
Cc1noc(C)c1-c1ccc2c(Nc3ccccc3C(C)(C)C)c(C(=O)NCc3ccccc3)cnc2c1	762
O=C(NCCCCN1CCC(c2ccc3c(c2OCC2COCO2)CCCC3)CC1)c1ccc(-c2ccc(C(F)(F)F)cc2)cc1 (stereo unspecified)	868
O=C(/C=C/c1ccc(Cl)c(Cl)c1)NC1CCC(N2CCC(c3c[nH]c4ccccc34)CC2)CC1 (stereo unspecified)	876
N#Cc1ccc(-c2ccc(OCC(O)CN3CCCN(C(=O)C(c4ccc5c(c4)OCO5)N4CCN(C/C=C/c5ccccc5)CC4)CC3)cc2)cc1 (stereo unspecified)	654
COc1ccc(CNC2Cc3ccccc3C2)cc1-c1ccc(S(=O)(=O)NCCN2CCCC2)c(F)c1	719
O=C(Nc1ccc(-c2cncc(NCCCN3CCCC3)c2)cc1)c1ccccc1	939
CCCCCN1C(=O)C(c2ccccc2)(c2ccccc2)N=C1N	793
CCCN1CCN(c2ccc(NS(=O)(=O)c3ccc(C(=O)Nc4ccc(Cl)cc4)cc3)cc2)CC1	1110
CN1C(=O)C(=O)N(CCCCCONC(=N)N)C1=S	197
COc1ccc(CN2CCN(Cc3cc(Cl)ccc3O)CC2CCO)c(C)c1C (stereo unspecified)	1490
O=C(CCc1c[nH]cn1)Nc1cccc(-c2ccc(-c3nc4cc(F)ccc4[nH]3)s2)c1	557
CN1CCC(NCc2ccc(-c3cccc(S(=O)(=O)NCC4CCCO4)c3)cc2)CC1 (stereo unspecified)	939
C[C@H](Cc1ccc(OCCCCCOc2ccc(C[C@@H](C)NC[C@H](O)c3cccc(Cl)c3)cc2)cc1)NC[C@H](O)c1cccc(Cl)c1	190
CNCCNCc1cccc(-c2ccc(-c3nc4cc(C(F)(F)F)ccc4[nH]3)cc2)c1	693
COc1ccc(-c2nc3c(N)nc(N)nc3nc2-c2ccccc2Cl)cc1.COc1ccc(-c2nc3nc(N)nc(N)c3nc2-c2ccccc2Cl)cc1	549

SMILES	XC50 [nM]
CC(C)(C)C(C)(C)Cc1ccc(O)c(CN2CCN(c3ccccc3)CC2)c1	601
CS(=O)(=O)c1ccccc1CNC(=O)c1ccc(-c2ccc(-c3nc4cc(C(F)(F)F)ccc4[nH]3)s2)cc1	236
CC(C)CNCc1cccc(-c2cccc(CN(CCN(C)C)C(=O)Nc3ccccc3)c2)c1	795
CC(NC(=O)c1ccc(O)c(-c2ccc(Cl)c(Cl)c2)c1)C(=O)NCCN1CCOCC1 (stereo unspecified)	959
CN(C)CCC1CCN(CCS(=O)(=O)c2cccc(Nc3ccc(-c4ccsc4)cn3)c2)CC1	938
c1cc(-c2ccc(CN3CCCC3)cc2)cc(-c2nc3ccccc3[nH]2)c1	690
O=C1C[C@@H]([S+]([O-])Cc2nccs2)N1CCOCCCCCCc1ccc(Cl)cc1 (stereo partly specified)	1020
N#Cc1cccc(C(=O)Nc2cccc(-c3ccc(C(=O)NCCCN4CCOCC4)cc3)c2)c1	749
Nc1nc(O)c2cc(CN(C=O)c3ccc(C(=O)N[C@@H](CCC(=O)O)C(=O)O)cc3)ccc2n1	179
Cc1nc(-c2nc(NCc3ccccn3)ncc2-c2ccsc2)sc1C	559
CN(C)Cc1c(O)ccc2[nH]c(-c3ccc(OC(F)(F)F)cc3)nc12	727
O=C(NC1CCN(CC2(c3ccccc3F)CCCC2)CC1)c1cc[nH]n1	997
CC(C)C[C@H](Nc1ccc(C#N)c2ccccc12)C(=O)N[C@@H]1CCCc2ccccc21	763
Cc1cc(O)c2c3c1C(=O)C=C1C3c3c(c(O)cc(O)c3C(=O)C1(C)C)C2=O (stereo unspecified)	1680
COC(=O)c1ccc(CC(C)NCC(O)c2cccc(C(F)(F)F)c2)cc1C (stereo unspecified)	974
CC(CNCc1cn(Cc2cc(Br)cc(Br)c2)c2ccccc12)CNc1cc(=O)c2ccccc2[nH]1 (stereo unspecified)	464
Nc1ncc(-c2ccc(F)cc2)c2ccc(-c3cccc(F)c3)cc12	227
Cc1ncsc1CCN1C(=O)CC2(C1=O)C(=O)N(Cc1ccccc1)c1ccc(Cl)cc12 (stereo unspecified)	984
COc1ccc(-n2nc(C)cc2C(=O)NCc2ccc(-c3c(C)noc3C)cc2)cc1	980
Cc1ccc(Cc2cnc(CN3CCCCC3)c(O)c2)cc1	890
COC(=O)c1ccc2nc(-c3ccc(C(=O)NCc4ccc(Cl)c(Cl)c4)cc3)[nH]c2c1	852
O=C(NCC1CC1)C1CCN(C(c2ccccc2)c2ccc(Cl)c(Cl)c2)CC1 (stereo unspecified)	369
O=C(/C=C/c1ccc(Cl)c(Cl)c1)NCCCCCN1CCC(c2c[nH]c3cc(O)ccc23)CC1	745
FC(F)(F)c1cccc(CCNc2nccc(NCc3ccccc3Cl)n2)c1	1170

SMILES	XC50 [nM]
COc1ccc(Cn2c(Nc3cccc(C(F)(F)F)c3)nc3ccc(C(=O)NCCN4CCCC4)cc32)cc1Cl	753
COc1ccc2c(N/N=C/c3ccc([N+](=O)[O-])cc3)ccnc2c1	337
Cc1nc(C)c(-c2ccc(Oc3cccc(OC(F)(F)F)c3)cc2)c(O)c1Cl	684
Cc1ccc2[nH]cc(/C=C/C(=O)NC3CCC(CCN4CCc5ccc(C#N)cc5CC4)CC3)c2c1 (stereo unspecified)	916
CC(C)CCn1c(Sc2ccc(C#N)c([N+](=O)[O-])c2)nnc1-c1ccccc1Cl	1030
Nc1cc(-c2ccc(Br)cc2O)nc2ccccc12	619
Cc1cccc2nc(-c3ccc(-c4ccc(CN5CCN(CC6CCCN(C)C6)CC5)cc4)s3)[nH]c12 (stereo unspecified)	142
CCOc1ccc(OCCCON2C(=N)N=C(N)NC2(C)C)cc1	3.2
COc1cc(C(=O)N2CCOC(CCN3CCC[C@H]3C(=O)Nc3ccccc3)(c3ccc(Cl)c(Cl)c3)C2)cc(OC)c1OC (stereo partly specified)	733
CC(=O)N1c2ccccc2C(C)=CC1(C)C	938
Cc1ccc(S(=O)(=O)n2cc(-c3ccnc(N)c3)c3cc(Br)cnc32)cc1	896
CC(C)Cn1c(Sc2ccc(C#N)c([N+](=O)[O-])c2)nnc1-c1ccc(N(C)C)cc1	220
COc1ccc(OC)c(CC2c3ccc(Br)c(O)c3CCN2C)c1 (stereo unspecified)	754
c1ccc(CCNCc2ccc(-c3ccc(CNCc4ccc5c(c4)OCO5)cc3)nc2)cc1	1250
COc1ccccc1C1CCN(C2CCC(NC(=O)/C=C/c3cc(C(F)(F)F)cc(C(F)(F)F)c3)CC2)CC1 (stereo unspecified)	1200
CC(=O)Nc1ccc(C(=O)Nc2cccc(-c3ccc(-c4nc5cc(C(F)(F)F)ccc5[nH]4)cc3)c2)cn1	231
CC1CCC(C[C@@H](C(=O)N[C@H](C(=O)Nc2nccs2)[C@@H](C)O)[C@H](CCC(F)(F)F)N(O)C=O)CC1 (stereo partly specified)	535
CS(=O)(=O)N1CC2(CCN(CCC(NC(=O)/C=C/c3ccccc3)c3ccc(Cl)c(Cl)c3)CC2)c2ccccc21 (stereo unspecified)	782
COc1ccc2nccc([C@@H](O)CN3CCC(NC(=O)C(c4ccsc4)N4CCN(c5ccccc5OC)CC4)CC3)c2c1 (stereo partly specified)	832
C=CCOc1ccccc1CNCC(O)c1cccc(C(F)(F)F)c1 (stereo unspecified)	845
Cc1cc(N2CCCC2)nc(Nc2ccc(NC(=O)C(C)(C)C)cc2)n1	1070
Cc1ccc(C)c(C2CCN(CCCCNC(=O)c3ccc(NC(=O)c4ccc(Cl)cc4)cc3)CC2)c1	847
N=C(N)Nc1ccc(OCCCCCOc2ccc(NC(=N)N)c(Cl)c2)cc1Cl	857
